Columns and labels:
Type in all cases: cell-based
[1] = tested on: ACE2 high expressing-HEK293T cells (ACE2h cells); conditions: 24 h, even at 100 μM
Protocol: For cytotoxicity assay, ACE2^h cells were seeded into 96-well plates at a density of 1×10^4 cells per well and then treated with different concentrations of OA (0.01, 0.1, 1, 10, 100 μM) for 24 h, then 10 μL of Cell Counting Kit (IV08-500, Invigentech, USA) solution was added to each well followed by 2 h of incubation. The relative cell viability was assessed by the detection of the absorbance at 450 nm using a microplate reader (Infinite F50, Thermo Fisher, China). The survival rate of ACE2^h cells was calculated as the following formula: Survival rate = [(OD Treated –OD Blank) / (OD Control−OD Blank)] × 100%.

[2] = tested on: SARS-CoV-2 Delta (B.1.617.2) pseudovirus into ACE2h cells; assay: microbe, parasite or virus in culture
[3] = tested on: SARS-CoV-2 pseudovirus Omicron (B.1.1529) into ACE2h cells

With O=C(O)C(=O)O [OA, Oxalic acid] as the compound, how does the “cytotoxic effect (cell viability)” value [1] read?
The value was “no significant cytotoxic effect”.

What about the “expression of green fluorescent protein in ACE2h cells” value [2] of the same compound?
The value was “significantly reduced”.

What about the IC50 ([2]; Pseudovirus, read-out: IC50, inhibition of entry of Delta pseudovirus into ACE2h cells) of the same compound?
Its IC50 is 26 µM.

What about the “luciferase activity compared to the control” value [3] of the same compound?
The value was “significantly reduced”.
